Columns and labels:
[1] = Patient with colon cancer (Example IV); format: in vivo, human; conditions: person, 800 mg bid
Excerpt: A person presents with symptoms of constipation and rectal bleeding and is diagnosed with colon cancer.

[2] = system: tcf/lef/β-catenin-mediated promoter activation; assay: TOPflash/FOPflash reporter assay for tcf/lef/β-catenin-mediated promoter activation (test (f)); format: cell-based, human; conditions: positive in 184B5, 184B5/HER, HCA7, HCT116, SKBR3 and BT474 cells; 24 h
Excerpt: Tcf/lef/β-catenin is a transcription factor complex that has been implicated in the regulation of genes involved in carcinogenesis. Increased tcf/lef/β-catenin-mediated gene expression has been linked to pathogenesis of colon cancer. Tcf/lef/β-catenin is described in Barker, N., et al, Adv. Cancer Res. 77, 1-24 (2000), the whole of which is incorporated herein by reference.
Cells (cell lines were 184B5, 184B5/HER, HCA7, HCT116, SKBR3 and BT474) were split into 6 well dishes and the next day were transiently transfected using 8 μg of LipofectAMlNE as per the manufacturer's instructions (Invitrogen, CA). 1.8 μg/dish of the wildtype Tcf/Lef reporter plasmid TOP flash or the mutant plasmid FOP flash was transfected into the cells and 0.2 μg of pSV-β-galactosidase. FOPflash differs from TOPflash by the mutation of its Tcf binding sites and serves to differentiate Tef/-catenin-mediated signaling from background (Upstate Biotechnology, Inc.). Cells were incubated overnight and were treated for 24 hours with either vehicle or test compound. Luciferase activity in the extracts was measured as described above and was corrected for background by subtraction of FOP-FLASH values from corresponding TOP-FLASH values.

[3] = Patient with Alzheimer's disease (Example V); format: in vivo, human; conditions: person two, 200 mg bid
Experimental: person two presents with symptoms of memory loss and is diagnosed with Alzheimer's disease. The patient is given and maintained on a 200 mg bid dose of indomethacin heptyl ester. The progression of the symptoms stops.

[4] = Patient with oral premalignant lesion (Example VII); format: in vivo, human; conditions: person, lozenges 100 mg twice a day for six months
Excerpt: A person presents with a white patch on their tongue and is diagnosed as having an oral premalignant lesion.

[5] = Patient with cervical intraepithelial neoplasia, HPV 16 detected (Example VIII); format: in vivo, human; conditions: person, 0.5% in a cream on sponge/cervical cap, six months
Excerpt: A person presents to their gynecologist for evaluation. […] On biopsy, the patient is found to have cervical intraepithelial neoplasia. HPV 16 is detected. […] The SC-236 is discontinued with no recurrence of cervical intraepithelial neoplasia.

Structure (SMILES)	rate of progression of the colon cancer [1]	Test (f) at least 50% inhibition of tcf/lef/β-catenin-mediated promoter activation [2]	progression of the symptoms (memory loss, Alzheimer's disease) [3]	outcome of oral premalignant lesion [4]	repeat biopsy finding of cervical intraepithelial neoplasia [5]
Cc1ccc(-c2cc(C(F)(F)F)nn2-c2ccc(S(N)(=O)=O)cc2)cc1 [Celecoxib]	decreases	+ (A plus sign in the table indicates a positive result, that is meeting the test for each cell line as indicated above as providing a positive result)			
CCCCCCCOC(=O)Cc1c(C)n(C(=O)c2ccc(Cl)cc2)c2ccc(OC)cc12 [Indomethacin Analog 1, indomethacin heptyl ester]		+ (A plus sign in the table indicates a positive result, that is meeting the test for each cell line as indicated above as providing a positive result)	stops		
COc1ccc(OC(=O)Cc2c(C)n(C(=O)c3ccc(Cl)cc3)c3ccc(OC)cc23)cc1 [Indomethacin Analog 3, 1-(p-chlorobenzoyl)-5-methoxy-2-methyl-1H-indole-3-acetic acid, 4-methoxyphenyl ester]		+ (A plus sign in the table indicates a positive result, that is meeting the test for each cell line as indicated above as providing a positive result)			
NS(=O)(=O)c1ccc(-n2nc(C(F)(F)F)cc2-c2ccc(Cl)cc2)cc1 [SC-236, 4-[5-(4-chlorophenyl)-3-(trifluoromethyl)-1H-pyrazol-1-yl]benzenesulfonamide]	decreases	+ (A plus sign in the table indicates a positive result, that is meeting the test for each cell line as indicated above as providing a positive result)		resolution of the premalignant lesion	no further evidence of cervical intraepithelial neoplasia
CS(=O)(=O)c1ccc(-n2nc(C(F)(F)F)cc2-c2ccc(F)cc2)cc1 [SC-58125, 4-[5-(4-fluorophenyl)-3-(trifluoromethyl)-1H-pyrazol-1-yl]benzenemethylsulfone]		+ (A plus sign in the table indicates a positive result, that is meeting the test for each cell line as indicated above as providing a positive result)			
